From patent publication US20210022305A1, “A HUMULUS PLANT VARIANT AND EXTRACTS THEREOF” (BOMI LLC, priority 2018, published 2021)

Test system: liver cancer tumors (Standard Risk Hepatoblastoma)
Experiment: Liver cancer study: cisplatin alone vs cisplatin + ImmunAG, tumor size
Assay type: in vivo, human
Excerpt: Patient Characteristics. There were 99 men and 18 women in the trial. The average age was 53, with a minimum age of 31 and a maximum age of 78. Eighty-six patients (73.5%) were preoperative TACE negative, and 31 patients (26.49%) were preoperative TACE positive. Seventeen patient (14.52%) were HBsAg negative and 100 patients (85.47%) were HBsAg positive. One hundred six patients […] were Anti-HCV negative and 11 patients […] were Anti-HCV positive. Eighteen patients […] were negative for cirrhosis and 99 patients (83.9%) were positive for cirrhosis. Preoperative alpha-fetoprotein (μg/L) was an average of 18.3 with a minimum value of 1.7 and a maximum value of 1089. Cumulative tumor size was an average of 4.89 cm with a minimum of 2.37 cm and a maximum value of 19.62 cm. Fifty-three people had 2 tumors in the liver, 52 people has 3 liver tumors and 12 people had 4 tumors. The average tumor number is […]. There were 7 cases (5.98%) of high Necrosis differentiation, 106 cases of medium (90.59%) Necrosis differentiation, and 4 cases (3.41%) of low Necrosis differentiation. […] The rest, 99 patient (84.6%) had liver capsule invasion in some form.
All these patients were suffering from Standard Risk (SR) Hepatoblastoma- and not Hepatocellular carcinoma or Cholangiocarcinoma. Of these patients, 57 of the men, and 7 of the women, had surgical resectioning of some degree. However at this point of treatment resectioning was not considered a viable option.
There were 54 men and 10 women in the Cisplatin alone treatment group. There were 45 men and 8 women in the Cisplatin+ImmunAG group. The Cisplatin alone treatment group received a dosage of 50-70 mg/m^2, every four weeks for a duration of the study. The Cisplatin+ImmunAG group received the same dosage of Cisplatin as noted above in combination with a 80 mg-600 mg/day dose of ImmunAG (composition comprising CBD, humulene, and β-caryophyllene). The exact dose of ImmunAG was determined based on patient's sex and height, and was administered in three doses over the course of the day.

N.N.[Cl][Pt][Cl] [Cisplatin]
Final tumor sizes, Mean (after treatment, cisplatin 50-70 mg/m^2 every four weeks, ImmunAG 80 mg-600 mg/day): 5.659 | Initial tumor sizes, Mean (before treatment, liver tumors of patients): 4.851 | Change of mean tumors (final vs initial): 17% | Mean tumors relative to initial (from 1) (final vs initial = 1): 1.17
